According to US6380168B1, “Method for promoting hair growth” (Nomura Co., Ltd., priority 1992, dated 2002):
Where “and” joins values, the source holds several entries; their conditions need not be identical. Identical values can stand only once.

Tests used:
[1] = Skin blood flow in rats after topical application, measured with a Laser Doppler Flowmeter; assay type: in vivo, Wistar male rats; conditions: rat, measured after 20 minutes
Experimental: Wistar male rats (180 to 200 g weights) were employed as experimental animals. The quantity of the skin blood in this experiment was measured with a Laser Doppler Flowmeter (PF2B, Perimed). The backs of rats were sheared. A day later, the rats were anesthetisized with urethane (1 g/Kg) and a quantity of blood flow was measured. This quantity was defined as a normal flow.
Immediately after the measurement of the normal flow, a group of rats were treated with topical application of 25 μl of test liquid in 50% ethanol solution and a group of rats were treated with topical application of 50% ethanol solution as a control. The skin blood flow was measured at 20 minute, 40 minute and 60 minute intervals. MeOH extract from Calanthe discolor Lindl. (CDM-ext: 0.5% and 2.0%), Calanthoside A (0-20%), and indilbin (0.2%) were tested, and the results for the extract are shown in Table 1.
The ability of Calanthoside B to increase skin blood flow can be used to promote hair growth.

tyrosinase = test: Tyrosinase inhibition (L-Dopa, dopachrome absorbance at 475 nm, procedure of Manson and Peterson); assay type: biochemical, mushroom
Experimental: This experiment was conducted according to the procedure of Manson and Peterson. A 0.5 ml L-Dopa solution (0.03% in pH6.8 PBS) was added to 0.5 ml of a test liquid, and incubated for 5 minutes at 25° C. After which, a 0.5 ml of tyrosinase solution (obtained from a mushroom) was added and the mixture was further incubated for 5 minutes at 25° C. […] Kojic acid was used for a positive control test.

In the case of `OCC1O[C@@H](OCC2O[C@@H](Oc3c[nH]c4ccccc34)C(O)C(O)[C@@H]2O)C(O)C(O)[C@@H]1O` (stereo partly drawn) [Calanthoside A, 3-O-β-D-glucopyranosyl (1-6)-β-D-glucopyranosylindole], the “skin blood flow (result in words)” value ([1]; Calanthoside A (0-20%)) is reported as “increases skin blood flow”, the “% Inhibition” value (tyrosinase; concentration 50 μg/ml) is reported as 38.6% and the “% Inhibition” value (tyrosinase; concentration 200 μg/ml) is reported as 65.9%.
In the case of `OCC1O[C@@H](Oc2c(S[C@@H]3OC(CO)[C@@H](O)C(O)C3O)[nH]c3ccccc23)C(O)C(O)[C@@H]1O` (stereo partly drawn) [Calanthoside B, 2-S-β-D-glucopyranosyl-3-O-β-D-glucopyrannosyl-2-mercaptoindole], the “skin blood flow (result in words)” value ([1]; 0.2%) is reported as “increases skin blood flow”.
For `O=c1cc(CO)occ1O` [Kojic Acid, Kojic acid], the “% Inhibition” value (tyrosinase; concentration 5 (μM)) was 32.5% and 28.2% and 23.9%, the “% Inhibition” value (tyrosinase; concentration 20 (μM)) was 66.0% and 62.2% and 59.3% and the “% Inhibition” value (tyrosinase; concentration 50 (μM)) was 82.7% and 80.3% and 78.6%. The “anti-tyrosinase activity (result in words)” value (tyrosinase; summary of Table 2) was “strong anti-tyrosinase activity”.
